In patent publication US20020061839A1, “Serine peptidase modulators” (priority 1998, published 2002):
Structures can show the parent of a compound that is named as a salt. Where two headings read alike, the source gives them in different places.

Legend:
Prolyl oligopeptidase = biological target: T1, Prolyl oligopeptidase (Homo sapiens, UniProt P48147); test: Inhibition of prolyl oligopeptidase (PO), Z-Gly-Pro-AMC substrate; assay type: biochemical; conditions: PO from human platelets, 20 min at 37° C.
T1 construct: Prolyl oligopeptidase was purified from human platelets; from tissue; host or cells: human platelets
T1 sequence (P48147 1-710): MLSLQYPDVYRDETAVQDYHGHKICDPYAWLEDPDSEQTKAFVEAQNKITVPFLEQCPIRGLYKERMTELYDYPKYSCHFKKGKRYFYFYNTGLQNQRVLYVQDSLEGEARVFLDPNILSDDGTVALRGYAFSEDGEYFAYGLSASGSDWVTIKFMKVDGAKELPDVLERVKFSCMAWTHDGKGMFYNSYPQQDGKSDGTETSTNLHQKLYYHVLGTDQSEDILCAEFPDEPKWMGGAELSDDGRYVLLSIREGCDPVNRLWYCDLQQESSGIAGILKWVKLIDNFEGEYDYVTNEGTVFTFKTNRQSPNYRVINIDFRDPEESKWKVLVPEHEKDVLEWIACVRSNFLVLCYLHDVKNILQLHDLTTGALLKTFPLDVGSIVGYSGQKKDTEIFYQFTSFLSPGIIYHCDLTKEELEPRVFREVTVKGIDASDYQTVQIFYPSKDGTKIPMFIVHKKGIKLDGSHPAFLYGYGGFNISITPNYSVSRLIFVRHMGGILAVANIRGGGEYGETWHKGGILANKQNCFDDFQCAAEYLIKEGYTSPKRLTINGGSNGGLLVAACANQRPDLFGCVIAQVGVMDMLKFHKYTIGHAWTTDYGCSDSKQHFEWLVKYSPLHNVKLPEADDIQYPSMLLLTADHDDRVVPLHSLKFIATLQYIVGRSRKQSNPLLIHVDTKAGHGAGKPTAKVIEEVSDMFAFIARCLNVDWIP
Protocol: Prolyl oligopeptidase was purified from human platelets and the enzyme activity was measured using Z—Gly—Pro—AMC (4.4 mM) as the substrate in a K-phosphate buffer 100 mM, pH 7.5 containing 1 EM EDTA, 1 mM dithiothreitol and 1 mM NaN3. The incubation was carried out during 20 min at 37° C. The reaction was stopped by the addition of 5 volumes 1.5 M acetic acid. Fluorescence was measured at 370 and 440 nm as excitation and emission wavelengths respectively. The inhibitors were added at concentrations varying between 1 μM and 1 mM.

in vitro = conditions: human, plasma
DPP IV = biological target: T2, DPP IV (Homo sapiens, UniProt P27487); test: biochemical; assay type: biochemical; conditions: for kinact/KI: 0.25 h, pH 8.3, read-out: kcalc (second order rate constant of inactivation)
T2 construct: DPP IV was purified from human seminal plasma as described previously; from tissue; host or cells: human seminal plasma
T2 sequence (P27487 whole entry): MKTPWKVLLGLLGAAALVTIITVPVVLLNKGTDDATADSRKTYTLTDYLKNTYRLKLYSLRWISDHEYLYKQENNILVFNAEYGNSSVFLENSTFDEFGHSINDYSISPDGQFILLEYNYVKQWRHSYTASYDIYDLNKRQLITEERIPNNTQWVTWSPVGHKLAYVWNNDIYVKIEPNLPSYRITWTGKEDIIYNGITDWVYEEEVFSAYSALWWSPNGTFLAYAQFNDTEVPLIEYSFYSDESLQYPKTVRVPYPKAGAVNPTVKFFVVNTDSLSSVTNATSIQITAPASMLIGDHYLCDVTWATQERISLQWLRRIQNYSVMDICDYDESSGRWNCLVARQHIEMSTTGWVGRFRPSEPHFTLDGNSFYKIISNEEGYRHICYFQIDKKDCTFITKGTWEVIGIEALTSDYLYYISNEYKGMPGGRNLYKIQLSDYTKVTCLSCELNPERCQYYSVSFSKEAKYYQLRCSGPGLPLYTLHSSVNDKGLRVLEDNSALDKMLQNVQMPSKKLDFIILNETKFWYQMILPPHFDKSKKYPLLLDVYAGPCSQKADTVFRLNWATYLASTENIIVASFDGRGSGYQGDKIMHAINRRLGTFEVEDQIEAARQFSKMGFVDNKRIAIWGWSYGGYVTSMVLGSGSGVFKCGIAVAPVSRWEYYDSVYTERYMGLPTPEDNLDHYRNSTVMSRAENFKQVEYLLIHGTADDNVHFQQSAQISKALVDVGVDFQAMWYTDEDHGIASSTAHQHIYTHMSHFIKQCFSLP
Protocol: Enzymatic activity was measured at 37° C. in a Spectramax 340 (Molecular Devices) microtiterplate reader using Gly—Pro-p-nitroanilide (Sigma) as a chromogenic substrate. […] The reaction mixture contained 2 mM substrate, approximately 1 mU of DPP IV, 40 EM TRIS-HCl buffer, pH 8.3, and a suitable amount of inhibitor (ranging between 0 an 10 mM) in a total volume of 0.2 ml. Activity measurements were routinely performed in duplicate.
Stock solutions were diluted with 50 mM TRIS-HCl buffer, pH 8.3, as required, immediately before the experiment. […] For a simple pseudo-first order inactivation process, the activity after incubation with inhibitor (vi) varies with the inhibitor concentration (i) as described in the following equation: vi=vo * e-k.i.t, where vo is the activity in absence of inhibitor, k is the second order rate constant of inactivation and t is the time.

[1] = 15 min pre-incubation with DPP IV at 37° C., average ± standard deviation

SMILES | IC50 (Prolyl oligopeptidase) [µM] | half-life at 1 mM (in vitro) [h] | other results
CC(=O)Nc1cccc(OP(=O)(Oc2cccc(NC(C)=O)c2)C2CCCN2C(=O)[C@@H]2CCCN2C(=O)OCc2ccccc2)c1 (mixture of isomers) [10d, Di(3-acetamidophenyl) 1-(benzyloxycarbonyl-(S)-prolyl)-pyrrolidine-2(R,S)-phosphonate] | 10 |  | 
CC(=O)Nc1ccc(OP(=O)(Oc2ccc(NC(C)=O)cc2)C2CCCN2C(=O)[C@@H]2CCCN2C(=O)OCc2ccccc2)cc1 (mixture of isomers) [10e, Di(4-acetamidophenyl) 1-(benzyloxycarbonyl-(S)-prolyl)-pyrrolidine-2(R,S)-phosphonate] | 21 |  | 
CS(=O)(=O)Nc1ccc(OP(=O)(Oc2ccc(NS(C)(=O)=O)cc2)C2CCCN2C(=O)[C@@H]2CCCN2C(=O)OCc2ccccc2)cc1 (mixture of isomers) [10f, Di(4-methylsulfonylaminophenyl) 1-(benzyloxycarbonyl-(S)-prolyl)pyrrolidine-2(R,S)-phosphonate] | 10 |  | 
O=C(CNC(=O)c1ccccc1)Nc1ccc(OP(=O)(Oc2ccc(NC(=O)CNC(=O)c3ccccc3)cc2)C2CCCN2C(=O)[C@@H]2CCCN2C(=O)OCc2ccccc2)cc1 (mixture of isomers) [10h, Di[4-(N-benzoylglycylamino)phenyl]-1-(benzyloxycarbonyl-(S)-prolyl)pyrrolidine-2(R,S)-phosphonate] | 12 |  | 
O=C(CNC(=O)OCc1ccccc1)Nc1ccc(OP(=O)(Oc2ccc(NC(=O)CNC(=O)OCc3ccccc3)cc2)C2CCCN2C(=O)[C@@H]2CCCN2C(=O)OCc2ccccc2)cc1 (mixture of isomers) [10i, Di[4-(N-benzyloxycarbonylglycylamino)phenyl]-1-(benzyloxycarbonyl-(S)-prolyl)pyrrolidine-2(R,S)-phosphonate] | 15 |  | 
COC(=O)[C@H](Cc1ccc(OP(=O)(Oc2ccc(C[C@H](NC(C)=O)C(=O)OC)cc2)C2CCCN2C(=O)[C@@H]2CCCN2C(=O)OCc2ccccc2)cc1)NC(C)=O (mixture of isomers) [10l, Di{4-[-(S)-(2-methoxycarbonyl-2-acetamido)ethyl]phenyl}1-(benzyloxycarbonyl-(S)-prolyl)pyrrolidine-2(R,S)-phosphonate] | 20 |  | 
CCOC(=O)CNC(=O)c1ccc(OP(=O)(Oc2ccc(C(=O)NCC(=O)OCC)cc2)C2CCCN2C(=O)[C@@H]2CCCN2C(=O)OCc2ccccc2)cc1 (mixture of isomers) [10n, Di{4-[(ethoxycarbonyl)methylaminocarbonyl]phenyl}1-(benzyloxycarbonyl-(S)-prolyl)-pyrrolidine-2(R,S)-phosphonate] | 5 |  | 
COC(=O)CCNC(=O)c1ccc(OP(=O)(Oc2ccc(C(=O)NCCC(=O)OC)cc2)C2CCCN2C(=O)[C@@H]2CCCN2C(=O)OCc2ccccc2)cc1 (mixture of isomers) [10o, Di{4-[2-(methoxycarbonyl)ethylaminocarbonyl]phenyl}1-(benzyloxycarbonyl-(S)-prolyl)-pyrrolidine-2(R,S)-phosphonate] | 2.8 |  | 
CCCNC(=O)c1ccc(OP(=O)(Oc2ccc(C(=O)NCCC)cc2)C2CCCN2C(=O)[C@@H]2CCCN2C(=O)OCc2ccccc2)cc1 (mixture of isomers) [10p, Di[4-(n-propylaminocarbonyl)phenyl]1-(benzyloxycarbonyl-(S)-prolyl)-pyrrolidine-2(R,S)-phosphonate] | 3.2 |  | 
CC(=O)Nc1cccc(OP(=O)(Oc2cccc(NC(C)=O)c2)C2CCCN2C(=O)[C@@H]2CCCN2)c1.Cl (mixture of isomers) [11d, Di(3-acetamidophenyl) 1-((S)-prolyl)pyrrolidine-2(R,S)-phosphonate hydrochloride] |  | 3.67 ± 0.5 | 
CS(=O)(=O)Nc1ccc(OP(=O)(Oc2ccc(NS(C)(=O)=O)cc2)C2CCCN2C(=O)[C@@H]2CCCN2)cc1.Cl (mixture of isomers) [11f, Di(4-methylsulfonylaminophenyl) 1-((S)-prolyl)-pyrrolidine-2(R,S)-phosphonate hydrochloride] |  | 2.5 ± 0.5 | potency compared to the diastereoisomeric mixture 5 (DPP IV; DPP IV inhibition): about 100 times
NC(=O)Nc1cccc(OP(=O)(Oc2cccc(NC(N)=O)c2)C2CCCN2C(=O)[C@@H]2CCCN2)c1 (mixture of isomers) [11g, Di(3-ureylphenyl) 1-((S)-prolyl)pyrrolidine-2(R,S)-phosphonate hydrochloride] |  | 3.5 ± 1.33 | kinact/KI (DPP IV): 330 M⁻¹ s⁻¹; IC50 (DPP IV; [1]): 2.3 ± 0.3 µM
Cl.O=C(CNC(=O)c1ccccc1)Nc1ccc(OP(=O)(Oc2ccc(NC(=O)CNC(=O)c3ccccc3)cc2)C2CCCN2C(=O)[C@@H]2CCCN2)cc1 (mixture of isomers) [11h, Di[4-(N-benzoylglycylamino)phenyl]-1-((S)-prolyl)pyrrolidine-2(R,S)-phosphonate hydrochloride] |  | 1.55 ± 0.05 | 
Cl.Cl.Cl.NCC(=O)Nc1ccc(OP(=O)(Oc2ccc(NC(=O)CN)cc2)C2CCCN2C(=O)[C@@H]2CCCN2)cc1 (mixture of isomers) [11i, Di[4-(N-glycylamino)phenyl]-1-((S)-prolyl)-pyrrolidine-2(R,S)-phosphonate trihydrochloride] |  | 0.467 ± 0.05 | 
C[C@H](N)C(=O)Nc1ccc(OP(=O)(Oc2ccc(NC(=O)[C@H](C)N)cc2)C2CCCN2C(=O)[C@@H]2CCCN2)cc1 (mixture of isomers) [11j, Di(4-(S)-alanylaminophenyl)-1-((S)-prolyl)pyrrolidine-2(R,S)-phosphonate trihydrochloride] |  | 0.133 ± 0.0167 | kinact/KI (DPP IV): 1300 M⁻¹ s⁻¹; IC50 (DPP IV; [1]): 0.6 ± 0.2 µM
O=C1CC[C@@H](C(=O)Nc2ccc(OP(=O)(Oc3ccc(NC(=O)[C@@H]4CCC(=O)N4)cc3)C3CCCN3C(=O)[C@@H]3CCCN3)cc2)N1 (mixture of isomers) [11k, Di(4-(S)-pyroglutamylaminophenyl)-1-((S)-prolyl)pyrrolidine-2(R,S)-phosphonate hydrochloride] |  | 2.83 ± 0.5 | kinact/KI (DPP IV): 150 M⁻¹ s⁻¹; IC50 (DPP IV; [1]): 5 ± 0.8 µM
COC(=O)CCNC(=O)c1ccc(OP(=O)(Oc2ccc(C(=O)NCCC(=O)OC)cc2)C2CCCN2C(=O)[C@@H]2CCCN2)cc1.Cl (mixture of isomers) [11o, Di{4-[2-(methoxycarbonyl)ethylaminocarbonyl]phenyl}1-((S)-prolyl)-pyrrolidine-2(R,S)-phosphonate hydrochloride] |  | 0.433 ± 0.0167 | 
CCCNC(=O)c1ccc(OP(=O)(Oc2ccc(C(=O)NCCC)cc2)C2CCCN2C(=O)[C@@H]2CCCN2)cc1.Cl (mixture of isomers) [11p, Di[4-(n-propylaminocarbonyl)phenyl]1-((S)-prolyl)-pyrrolidine-2(R,S)-phosphonate hydrochloride] |  | 0.2 ± 0.0167 | 
COP(=O)(Oc1ccccc1-c1ccccc1O)C1CCCN1C(=O)[C@@H]1CCCN1 (mixture of isomers) [compound 18, 2-(2′-Hydroxyphenyl)phenyl methyl 1-(S)-prolyl)-pyrrolidine-2(R,S)-phosphonate hydrochloride] |  | 2.33 ± 1.33 | IC50 (DPP IV): 47 µM; kinact/KI (DPP IV): 16 M⁻¹ s⁻¹
COC(=O)C(Cc1ccc(OP(=O)(Oc2ccc(CC(NC(C)=O)C(=O)OC)cc2)C2CCCN2C(=O)C2CCCN2)cc1)NC(C)=O [11l, Di{4-[-(S)-(2-methoxycarbonyl-2-acetamido)ethyl]phenyl}1-((S)-prolyl)pyrrolidine-2-phosphonate hydrochloride] |  | 3.17 ± 2.5 | IC50 (DPP IV): 1.4 µM; kinact/KI (DPP IV): 550 M⁻¹ s⁻¹
